Experimental data: patent publication US6518307B2, “Control of microbial populations in the gastrointestinal tract of animals” (Lynntech, Inc., priority 2000, dated 2003)

How the values were obtained:
bacteria = assay: In vitro bacterial kill in the presence of interfering compounds found in poultry ingesta; format: cell-based; conditions: in the presence of potentially interfering compounds of poultry ingesta
Text: Organic compounds have been evaluated for biocidal efficacy in the upper GI tract of poultry, including D-limonene. […] Organic acids have also found utility as a drinking water biocide for gut bacteria.

[1] = cited from earlier work
[2] = test system: bacteria in the crops of market-age broilers; assay: Biocidal effect of a drinking water oxidant in the crops of market-age broilers; format: in vivo; conditions: dissolved in drinking water
Description: A variety of chemicals have been evaluated for efficacy as a drinking water-based biocide for administration to birds during the period of feed withdrawal. […] It was found, however, that the biocidal effect of this dissolved, short-lived oxidant was minimal in the crops of market-age broilers. This ineffectiveness is thought to be due primarily to the high ozone demand of the ingesta itself, which consumes the majority of the ozone and subsequently prevents delivery of sufficient ozone to the bacteria surfaces.

Salmonella enteritidis [3] = assay: In vitro reduction of Salmonella enteritidis in the presence of autoclaved broiler feed; format: cell-based; conditions: 1 h, 37° C.
Description: Another study was performed to determine the bactericidal effects of the same three peracids investigated in the first study. Eleven tubes were filled with 0.5 g of autoclaved broiler feed to which 100 ul of a Salmonella enteritidis culture broth was added. Two of the tubes were additionally filled with 1.9 ml of distilled water and the remaining nine were filled with an additional 1.7 ml of H2O. The peracids were added to the nine tubes to achieve a 0.0125% of each of the three peracids and two subsequent dilutions to achieve 0.00625% and 0.003125% of each. The samples were incubated at 37° C. and vortexed. After 1 h, the samples were plated and diluted to yield a plate count of 10^4 and 10^3 cfu/ml

[4] = in water, alcohol, ether, and sulfuric acid; cited from earlier work
Salmonella enteritidis [5] = assay: Reduction of Salmonella in crops of SE challenged broilers, perlactic acid vs lactic acid and hydrogen peroxide (Example 8); format: in vivo; conditions: 30 ppm in drinking water for 8 hours
Description: In the final broiler study, forty-five 8-week old broilers were divided up into 3 groups with […]. Upon feed withdrawal, all birds were gavaged with 1 ml of a 1×10^8 challenge of Salmonella enteritidis. At this time, all feed was removed and the drinking water treatments administered. […] All groups received the same withdrawal time of 8 hours. At the time of kill, the crops were aseptically collected after cervical dislocation. The crops were added to […] bags containing 10 ml of PBS. The bags were stomached for 30 sec where upon 250 μl were removed and added to 2.25 ml of PBS. […] Groups 2 and 3 were directly plated from the […] bags by taking 100 μl from the bag and spread plating it onto BGA plates. These plates were incubated for 24 hrs at 37° C. The plates were counted for CFUs and log 10 reductions. After the bags had been used for dilution purposes, 9.0 ml of tetrathionate broth was added for enrichment purposes. These bags were incubated along with the plates. 24 hours later, 1 loopful of the bag contents were streaked onto BGA plates for +/- observations.

Salmonella enteritidis [6] = assay: Reduction of Salmonella in broiler crops under different consumption pressures (Example 7); format: in vivo; conditions: 0.003125% (30 ppm) in drinking water
Description: Another experiment was designed to further characterize the disinfection effect of perlactic acids when different consumption pressures were placed on 8 week-old broilers. All of the birds had the feed removed 8 hours prior to slaughter. Perlactic acid was added at 0.003125% (30 ppm) to the drinking water for the last 8 hours of the study (feed withdrawal period). The first treatment group had water removed 8 hours prior to the 8 h feed withdrawal (PL 8-8-8) and the second treatment group had only feed withdrawal/perlactic treatment (PL 8—8). The last group had access to the peracid in their drinking water 12 hours prior to slaughter and the feed taken up 4 hours after that yielding a final feed withdrawal time of 8 h (PL 12-8). At the conclusion of the study, the crops were processed microbiologically similar to the methods described for FIG. 3.

Salmonella enteritidis [7] = assay: Reduction of Salmonella in broiler crops, peracid in drinking water during 8 h feed withdrawal (Example 6); format: in vivo; conditions: 8 h exposure, broilers
Description: To determine the biocidal effect of perlactic and percitric on Salmonella in the upper GI tract (crops) of broiler chickens, peracid solutions were added to the drinkers such that the concentration of perlactic was 0.006 or 0.003% and percitric was at a 0.03% concentration. The birds were deprived of water for 8 h prior to an 8 h feed withdrawal period and allowed to drink the water for 8 h. Prior to reintroduction of the water with the test compounds, the birds were gavaged with 1 ml of 10^8 Salmonella. After the 8 h test consumption, the birds were terminated, the crops removed aseptically, stomached for 30 seconds, diluted and plated onto BGA with NO/NA.

[8] = all concentrations (0.0125%, 0.00625%, 0.003125%)
[9] = highest concentration (0.0125%)

C=C(C)[C@H]1CC=C(C)CC1 [D-limonene]
in vitro antibacterial effect (bacteria): excellent bacterial kills

OO [HP, hydrogen peroxide, reference compound]
loss of active ingredients ([1]; 30 to 90% solution): less than 1 % per year

O=[O+][O-] [Ozone]
biocidal effect in the crops [2]: minimal

CC(=O)O [acetic acid]
in vitro antibacterial effect (bacteria): excellent in vitro antibacterial capability

CC(=O)OO [peracetic acid]
time to lose half its strength through hydrolysis ([1]; 1% solution): 6 days | biocidal effect on Salmonella enteritidis (Salmonella enteritidis [3]; [8]): poor biocide | solubility [4]: freely soluble

CC(O)C(=O)OO (centres unmarked) [perlactic acid]
reduction in Salmonella in the crop as compared to the control (Salmonella enteritidis [5]): 2.71 Log10 | effectiveness in reducing Salmonella in crops compared to FIG. 3 (Salmonella enteritidis [6]; same concentrate used 1 week later): diminished | influence of increased exposure time or water deprivation prior to feed withdrawal on biocidal effect (Salmonella enteritidis [6]; PL 8-8-8, PL 8-8, PL 12-8): does not increase the biocidal effect | biocidal effect on Salmonella enteritidis (Salmonella enteritidis [3]; [8]): showed a disinfection efficacy at all concentrations | biocidal effect on Salmonella enteritidis (Salmonella enteritidis [3]; [9]): eliminated the Salmonella to levels that fell below the detection limit of this assay | log reduction of Salmonella in the crop (Salmonella enteritidis [7]; 0.003% in drinking water): two | reduction of Salmonella in the crop (Salmonella enteritidis [7]; 0.006 or 0.003% in drinking water): multiple log reduction

percitric acid
biocidal effect on Salmonella enteritidis (Salmonella enteritidis [3]; diluted samples (0.00625%, 0.003125%)): not as efficient | biocidal effect on Salmonella enteritidis (Salmonella enteritidis [3]; [9]): significant biocidal effects | reduction of Salmonella in the crop (Salmonella enteritidis [7]; 0.03% in drinking water): multiple log reduction
